Bridge positions count the residues as written; N and C are the ends. Square brackets hold non-standard residues; d marks the D form. Ends that are not written are not given here. 1Nal = N[C@@H](Cc1cccc2ccccc12)C(=O)O; Sar = CNCC(=O)O
Columns and labels:
[1] = test system: human, bone marrow derived CD34+ cells; assay: C/BFU-e assay (erythroid colonies); type: cell-based; conditions: Table 6, 14 days
Protocol: EPO-R signaling stimulates the differentiation of bone marrow stem cells into proliferating red blood cell precursors. This assay measures the ability of test peptides to stimulate the proliferation and differentiation of red blood cell precursors from primary human bone marrow pluripotent stem cells.
For this assay, serial dilutions of test peptide are made in IMDM medium (Gibco) supplemented with 10% FBS (Hyclone). These serial dilutions, or positive control EPO peptide, are then added to methylcellulose to give a final volume of 1.5 mL. The methylcellulose and peptide mixture is then vortexed thoroughly. Aliquots (100,000 cells/mL) of human, bone marrow derived CD34+ cells (Poietics/Cambrex) are thawed. The thawed cells are gently added to 0.1 mL of 1 mg/ml DNAse (Stem Cells) in a 50 mL tube. Next, 40-50 mL IMDM medium is added gently to cells: the medium is added drop by drop along the side of the 50 mL tube for the first 10 mL, and then the remaining volume of medium is slowly dispensed along the side of the tube. The cells are then spun at 900 rpm for 20 min, and the media removed carefully by gentle aspiration. The cells are resuspended in 1 ml of IMDM medium and the cell density per mL is counted on hemacytometer slide (10 μL aliquot of cell suspension on slide, and cell density is the average count×10,000 cells/ml). The cells are then diluted in IMDM medium to a cell density of 15,000 cells/mL. A 100 μL of diluted cells is then added to each 1.5 mL methyl cellulose plus peptide sample (final cell concentration in assay media is 1000 cells/mL), and the mixture is vortexed. Allow the bubbles in the mixture to disappear, and then aspirate 1 mL using blunt-end needle. Add 0.25 mL aspirated mixture from each sample into each of 4 wells of a 24-well plate (Falcon brand). Incubate the plated mixtures at 37° C. under 5% CO2 in a humid incubator for 14 days. Score for the presence of erythroid colonies using a phase microscope (5×-10× objective, final magnification of 100×). The concentration of test peptide at which the number of formed colonies is 90% of maximum, relative to that observed with the EPO positive control, is recorded as the EC90 [See Table 2: C/BFU-e EC90].
For this assay, serial dilutions of test peptide are made in IMDM medium (Gibco) supplemented with 10% FBS (Hyclone). These serial dilutions, or positive control EPO peptide, are then added to methylcellulose to give a final volume of 1.5mL. The methylcellulose and peptide mixture is then vortexed thoroughly. […] The cells are resuspended in 1 ml of IMDM medium and the cell density per mL is counted on hemacytometer slide (10 μL aliquot of cell suspension on slide, and cell density is the average count×10,000 cells/ml). […]

[2] = test system: bone marrow cultures established from healthy human donors; assay: Bone marrow cultures with patient serum (erythroid colonies); type: cell-based
Protocol: (§1) The anti-Peptide I antibody assay was performed in the laboratories of the Sponsor using an ELISA method, with a sensitivity of 300 ng/mL [Fan Q., et al. (2006) Exp. Hematol. 34: 1303-11; Woodburn K W, et al. (2007) Exp. Hematol. 35: 1201-8]. Anti-EPO antibodies were measured by radioimmune precipitation assay. To confirm that the patient's antibodies were not cross-reactive with Peptide I, serum from three patients was tested in bone marrow cultures (established from healthy human donors, as previously described [Verhelst D, et al. (2004) Lancet 363: 1768-71]). Culture conditions included 20% of either fetal calf serum as a control or one of the study patient's serum. Cultures included either 1 IU/mL of recombinant human EPO or 0.55 μg/mL of Peptide I (a concentration previously shown to be equivalent to 1 IU/mL of EPO for erythroid growth). Erythroid colonies were counted on day 7.

[3] = test system: anti-Peptide I antibodies; assay: Anti-Peptide I antibody assay (ELISA) in patient serum; set-up: species or system human; conditions: 10 patients, after up to 10 doses
Protocol: as §1

[4] = in vivo; cited from earlier work

EC90 [1]: 3 nM
Substance: PEGylated homodimer of peptide monomers (AcG)GLYACHMGPIT(1-nal)VCQPLR(MeG)K (SEQ ID NO: 2), EPO-R agonist (Ac-GGLYACHMGPIT[1Nal]VCQPLR[Sar]K; disulfide 6-15 (inferred); not fully specified (residue 21); printed as (AcG)GLYACHMGPIT(1-nal)VCQPLR(MeG)K; also: PEGylated) [Peptide I]
erythroid growth in presence of patient serum ([2]; 20% serum of three patients, 1 IU/mL EPO or 0.55 μg/mL Peptide I, colonies counted day 7): erythroid differentiation was observed
concentration equivalent to 1 IU/mL of EPO for erythroid growth ([2]; previously shown): 0.55 µg/mL
anti-Peptide I antibodies in serum [3]: No anti-Peptide I antibodies were detected
clearance times [4]: slow
half-life [4]: prolonged

— US20090209457A1, “TREATMENT OF ANTI-ERYTHROPOIETIN ANTIBODY-MEDIATED DISORDERS WITH SYNTHETIC PEPTIDE-BASED EPO RECEPTOR AGONISTS” (Affymax, Inc., priority 2008, published 2009)
